“Also recorded” adds a separate entry of the source.
How the values were obtained:
[1] = Oxidative stability of iron fortified cereals in hot room (hexanal, rancid odor, off odor); assay type: physicochemical; conditions: for Off Odor Value / Rancid Odor Value / Hexanal Value: measured at two and four weeks (interval of value not stated); for Hexanal Value: ± 95% confidence interval
Protocol: The feasibility of using other iron sources was also tested. […] The individual tests are discussed in further detail below.
These samples were used for comparative stability and sensory analysis.
In order to test the stability of the iron fortified cereals, the R-T-E cereal samples prepared using four different sources of iron were placed in a hot room and exposed to a temperature of 100° F. over a four week period. Measurements were taken at two and four week intervals.

[2] = in some diets; cited from earlier work
Sprague Dawley rats = assay: Rat hemoglobin regeneration method, relative iron bioavailability (modified AOAC); assay type: in vivo
Protocol: The relative iron availability of various iron compounds in a ready-to-eat breakfast cereal was tested using a widely accepted method, commonly referred to as the rat hemoglobin regeneration method, (modified AOAC method for assessment of relative iron bioavailability), see Williams, S. ed. Official methods of analysis of the Association of Official Analytical Chemists, 14th ed. Arlington, Va. AOAC, 1984; Fritz, J. C. et al., Collaborative Study of rat hemoglobin repletion test for bioavailability of iron, AOAC 1974, 57: 513-517. The testing for relative bioavailability of the various iron compounds was carried out in a series of separate experiments. In each of these experiments, ferrous sulfate was used as the standard or control compound.
Sprague Dawley rats, individually housed in temperature and light controlled units, were fed an iron deficient diet obtained from Harland Tekland Laboratories for 24 days. After this iron depletion phase, the rats were weighed and blood was drawn to test for baseline hemoglobin concentrations. These anemic animals, with hemoglobin levels between […], were then randomly assigned to the control and test groups. Ferrous sulfate and the iron compounds in the cereal were added at concentrations of 6 and 18 and 24 mg iron/kg to the control and test diets. These diets were then fed to groups of ten animals, ad libitum, for 14 days. Iron levels in the diets, were verified by atomic absorption spectrometry (Bolin et al., J. Assoc. Off. Anal. Chem. 1977, 60: 1170-1174). After the 14 day test period, hemoglobin concentrations were determined for all animals.
The bioavailability of each iron source tested relative to ferrous sulfate, was calculated by comparing gain in hemoglobin with the iron concentration in the diet by the slope ratio procedure (Finney, D. J., Statistical methods in biological assay. 2nd ed. 1964; Amine et L., Biological assessment of available iron in food products, J. Agric. Food Chem. 1974, 22: 470-476.). […]

**Q.** With `O=C([O-])/C=C/C(=O)[O-].[Fe+2]` [Ferrous Fumarate, ferrous fumarate, reference compound] as the molecule, how does the “Off Odor Value” ([1]; hot room 100° F.) read?
**A.** 2.67 ± 0.41

**Q.** And the “Rancid Odor Value” ([1]; hot room 100° F.)?
**A.** 2.89 ± 0.62

**Q.** And the “Hexanal Value” ([1]; hot room 100° F.)?
**A.** 2.37 ± 1.00

**Q.** For `O=C([O-])CN(CCN(CC(=O)[O-])CC(=O)[O-])CC(=O)[O-].[Fe+3].[Na+]` [Ferric EDTA, sodium ferric ethylenediaminetetraacetic acid complex], which “Bioavailability versus FeSO4 complex” value [2] is on record?
**A.** two to three times more bioavailable

**Q.** And the “Stability in continuing stability tests” value ([1]; expected in continuing tests)?
**A.** expected to improve in stability in comparison to the other ferric samples tested

**Q.** What about the “Oxidative stability (rancid odor, off odor, hexanal), result in words” value ([1]; hot room 100° F., four weeks) of the same molecule?
**A.** statistically significant lower level of rancid odor, off odor and hexanal value; also recorded: most stable of the products tested with the lowest hexanal, rancid odor and off odor values

**Q.** And the “Off Odor Value” ([1]; hot room 100° F.)?
**A.** 0.78 ± 0.44

**Q.** And the “Rancid Odor Value” ([1]; hot room 100° F.)?
**A.** 0.56 ± 0.43

**Q.** What about the “Hexanal Value” ([1]; hot room 100° F.) of the same molecule?
**A.** 0.40 ± 0.22

**Q.** And the “Slope Value (gain in hemoglobin vs iron concentration in the diet)” value (Sprague Dawley rats; 6, 18 and 24 mg iron/kg diet, 14 days, ± 95% confidence interval)?
**A.** 0.31 ± 0.03

**Q.** And the “Iron bioavailability / absorption, result in words” value (Sprague Dawley rats; anemic rats, versus ferrous sulfate and reduced iron)?
**A.** absorbed at a rate not significantly different from ferrous sulphate and significantly better than reduced iron; also recorded: superior in bioavailability to reduced iron

**Q.** Which results are given for ferrous sulfate [reference compound]?
**A.** Off Odor Value ([1]; hot room 100° F.): 2.33 ± 0.48; Rancid Odor Value ([1]; hot room 100° F.): 1.22 ± 0.57; Hexanal Value ([1]; hot room 100° F.): 2.13 ± 2.02; Slope Ratio (bioavailability relative to ferrous sulfate) (Sprague Dawley rats; rat, in vivo, 20160 min): 1.00

From patent US5667825A (Kellogg Company, priority 1996, dated 1997)
